In patent US9661847B2, “Antimicrobial preservative compositions for personal care products” (Galaxy Surfactants Ltd., priority 2011, dated 2017):
Read-outs that look alike come from different tables or passages of the source.

What was measured:
[1] = 0.1% aqueous solution at 25° C., from 72 dynes/cm; cited from earlier work
[2] = Reduction of surface tension of water; assay type: physicochemical
[3] = test system: Gram positive, Gram negative bacteria, yeast and mould; assay: Minimum inhibitory concentration, whole panel of microbes; assay type: cell-based; conditions: for Antimicrobial activity, in words: up to 1.0% concentration
[4] = test system: Bacillus subtilis ATCC 9372; assay: Minimum inhibitory concentration; assay type: cell-based; conditions: B. subtilis
[5] = test system: Candida albicans ATCC 10231; assay: Minimum inhibitory concentration; assay type: cell-based; conditions: for Concentration of individual component at the MIC of the blend: C. albicans
[6] = test system: Aspergillus niger ATCC 16404; assay: Minimum inhibitory concentration; assay type: cell-based; conditions: for Concentration of individual component at the MIC of the blend: A. niger
[7] = test system: Malassezia furfur MTCC 1374; assay: Minimum inhibitory concentration; assay type: cell-based; conditions: M. furfur
[8] = test system: Propionibacterium acnes MTCC 1951; assay: Minimum inhibitory concentration; assay type: cell-based; conditions: P. acnes
[9] = test system: Pseudomonas aeruginosa Immuno type IV; assay: Minimum inhibitory concentration; assay type: cell-based; conditions: P. aeruginosa
[10] = test system: Escherichia coli ATCC 10142; assay: Minimum inhibitory concentration; assay type: cell-based; conditions: E. coli
[11] = test system: Staphylococcus aureus ATCC 6538S; assay: Minimum inhibitory concentration; assay type: cell-based

For CCCCC(CC)COCC(O)CO (stereo not shown) [2-ethyl hexyl glyceryl ether, 3-(2-ethylhexyl)oxy 1,2-propanediol], the “Surface tension of water reduced to” value [1] is listed as 32 dynes/cm.

In the case of CCCCCCCC(=O)NCCO [Octanoyl MEA amide, N-(2-hydroxylethyl)caprylic acid amide], the “Surface tension of water reduced to” value ([2]; 0.05% level) is reported as 38 dynes/cm, the “Surface tension of water” value ([2]; 0.05% solution) is reported as 38.5 dyne/cm and the “Surface tension of water reduced to” value ([2]; 0.1% concentration) is reported as 30 dynes/cm. The “Surface tension of water” value ([2]; 0.1% solution) was 30.5 dyne/cm and the “Antimicrobial activity, in words” value [3] was “did not exhibit any antibacterial activity”.

For OCCOc1ccccc1 [Phenoxy ethanol, 2-Phenoxy ethanol], the “Concentration of individual component at the MIC of the blend” value (“Concentration of individual component” for short) ([4]; within Preservative Blend No 2) was 1600 ppm, the “Concentration of phenoxy ethanol in combination enough to kill the organism” value ([5]; in combination with [A] and [B] of Preservative Blend No 1, Candida) was “around 0.25%” and the “Concentration of phenoxy ethanol in combination enough to kill the organism” value ([6]; in combination with [A] and [B] of Preservative Blend No 1, Aspergillus) was “around 0.25%”. The “Concentration of individual component” value ([7]; within Preservative Blend No 2) was 3200 ppm.

For C=CCCCCCCCCC(=O)NCCO [Undecylenoyl MEA amide, N-undecylenoyl monoethanol amide], the “Concentration of individual component” value ([4]; within Preservative Blend No 1) was 200 ppm, the “Concentration of individual component” value ([4]; within Preservative Blend No 2) was 200 ppm and the “Concentration of individual component” value ([8]; within Preservative Blend No 1) was 300 ppm. For the same compound, the “Concentration of individual component” value ([8]; within Preservative Blend No 2) was 200 ppm, the “Concentration of individual component” value ([5]; within Preservative Blend No 1) was 300 ppm and the “Concentration of individual component” value ([5]; within Preservative Blend No 2) was 200 ppm. For the same compound, the “Concentration needed for antimicrobial activity of the ingredient by itself (range over microbes)” value ([3]; ingredient alone, octanoyl glycine tested at neutral pH) was greater than 10000 ppm, the “Antimicrobial activity, in words” value [3] was “does not exhibit any antimicrobial activity” and the “Concentration of individual component” value ([9]; within Preservative Blend No 1) was 200 ppm. For the same compound, the “Concentration of individual component” value ([9]; within Preservative Blend No 2) was 300 ppm, the “Concentration of individual component” value ([6]; within Preservative Blend No 1) was 300 ppm and the “Concentration of individual component” value ([6]; within Preservative Blend No 2) was 200 ppm. For the same compound, the “Concentration of individual component” value ([10]; within Preservative Blend No 1) was 200 ppm, the “Concentration of individual component” value ([10]; within Preservative Blend No 2) was 300 ppm and the “Concentration of individual component” value ([11]; within Preservative Blend No 1) was 200 ppm. The “Concentration of individual component” value ([11]; within Preservative Blend No 2) was 300 ppm, the “Concentration of individual component” value ([7]; within Preservative Blend No 1) was 400 ppm and the “Concentration of individual component” value ([7]; within Preservative Blend No 2) was 400 ppm.
